Reference: article PMC6968685 (Journal of Enzyme Inhibition and Medicinal Chemistry, 2020)
Where two headings read alike, the source gives them in different places.

Key:
[1] = system: human telomeric sequence F21T G-quadruplex; assay: FRET melting experiments, F21T; type: binding; settings: K+ conditions
Method: (§1) These were performed with dual-labelled oligonucleotides mimicking the Plasmodium telomeric sequences FPf1T [FAM-5′(GGGTTTA)3-GGG3′-TAMRA] and FPf8T [FAM-5′ (GGGTTCA)3GGG3′-TAMRA], the Trypanosoma 9 and 11 chromosomic sequence FTrypBT (also named FEBR1T) [FAM-5′[…]3′-TAMRA], the human telomeric sequence F21T [FAM-(GGGTTA)3-GGG3′-TAMRA], and the human duplex sequence FdxT [FAM5′-[…]-hexaethyleneglycol-[…]3′-TAMRA][51]^,[52]. The oligonucleotides were pre-folded in 10 mM lithium cacodylate buffer (pH 7.2), with 10 mM KCl and 90 mM LiCl (K^+condition). The FAM emissions were recorded at 516 nm using a 492-nm excitation wavelength in the absence and presence of a single compound as a function of temperature (25–95 °C) in 96-well microplates by using a Stratagene MX3000P real-time PCR device at a rate of 1 °C·min^−1. Data were normalised between 0 and 1, and the required temperature for half-denaturation of oligonucleotides corresponding to the emission value of 0.5 was taken as the Tm. […] For each compound, three independent experiments were carried out.

[2] = system: P. falciparum CQ-sensitive strain 3D7; assay: In vitro antiplasmodial activity, SYBR Green I fluorescence-based method, strain 3D7; type: cell-based; settings: Plasmodium falciparum, read-out: P. falciparum strains IC50 values, 3D7
Outline: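 P. falciparum 3D7 and W2 cultured in human erythrocytes in RPMI with 0.5% Albumax I at 37 °C, exposed 48 h to compounds tested […]. Parasite DNA read by SYBR Green I fluorescence (ex 485/em 535 nm); IC50 by non-linear regression, mean of three independent experiments.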

[3] = system: Plasmodium telomeric sequence FPf8T G-quadruplex; assay: FRET melting experiments, FPf8T; type: binding, P. falciparum; settings: K+ conditions
Method: as §1

[4] = system: Plasmodium telomeric sequence FPf1T G-quadruplex; assay: FRET melting experiments, FPf1T; type: binding, P. falciparum; settings: K+ conditions
Method: as §1

[5] = system: P. falciparum CQ-resistant strain W2; assay: In vitro antiplasmodial activity, SYBR Green I fluorescence-based method, strain W2; type: cell-based; settings: Plasmodium falciparum, read-out: P. falciparum strains IC50 values, W2
Method: The in vitro antiplasmodial activities were tested over concentrations ranging from […] against culture-adapted P. falciparum reference strains 3D7 and W2. […] The parasites were cultivated in RPMI medium (Sigma-Aldrich, Lyon, France) supplemented with 0.5% Albumax I (Life Technologies Corporation, Paisley, UK), hypoxanthine (Sigma-Aldrich), and gentamicin (Sigma-Aldrich) with human erythrocytes and were incubated at 37 °C in a candle jar, as described previously[43] .The P. falciparum drug susceptibility test was carried out in 96-well flat-bottom sterile plates in a final volume of 250 µl. After 48 h incubation period with the drugs, quantities of DNA in treated and control cultures of parasites in human erythrocytes were quantified using the SYBR Green I (Sigma-Aldrich) fluorescence-based method[44]^,[45]. Briefly, after incubation, plates were frozen at −20 °C until use. Plates were then thawed for 2 h at room temperature, and 100 µl of each homogenised culture was transferred to a well of a 96-well flat-bottom sterile black plate (Nunc, Inc., Rochester, NY) that contained 100 µl of the SYBR Green I lysis buffer (2xSYBR Green, 20 mM Tris base pH 7.5, 5 mM EDTA, 0.008% w/v saponin, 0.08% w/v Triton X-100). […] Plates were incubated for 1 h at room temperature and then read on a fluorescence plate reader (Tecan, Grödig, Austria) using excitation and emission wavelengths of 485 and 535 nm, respectively. IC50 values were calculated by non-linear regression analysis of data from dose-response curves, using TableCurve 2D version 5.0 software (Systat Software, San Jose, CA). IC50 values are reported as means calculated from three independent experiments.

[6] = system: L. donovani (MHOM/IN/00/DEVI) promastigotes; assay: In vitro antileishmanial activity, MTT assay on promastigotes; type: cell-based; settings: Leishmania donovani, 72 h incubation, ≥10 = no activity noted at the highest concentration tested
Outline: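 Log-phase L. donovani MHOM/IN/00/DEVI promastigotes (10^6/ml, Schneider's + 20% FCS) were exposed to graded compound concentrations (DMSO <0.5% v/v) for 72 h at 27 °C, in duplicate. Growth measured by MTT reduction (4 h, A570 nm); IC50 obtained by regression.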

[7] = system: human duplex sequence FdxT; assay: FRET melting experiments, FdxT duplex control; type: binding; settings: K+ conditions
Method: as §1

[8] = system: Trypanosoma 9 and 11 chromosomic sequence FTrypBT (FEBR1T) G-quadruplex; assay: FRET melting experiments, FtrypBT; type: binding, T. brucei brucei; settings: K+ conditions
Method: as §1

[9] = system: T. brucei brucei AnTat 1.9; assay: In vitro antitrypanosomal activity, Alamar Blue assay; type: cell-based; settings: Trypanosoma brucei; slender bloodstream trypomastigotes, AnTat 1.9 strain; read-out: Trypanosoma brucei brucei IC50 values, Trypanos Antat 1.9
Outline: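 Bloodstream parasites (2000/well) in supplemented MEM with 20% horse serum exposed to compound in duplicate for 69 h at 37 °C, then Alamar Blue added for 5 h; fluorescence read at ex 530/em 590 nm. IC50 by nonlinear regression, from three independent experiments.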

[10] = Cytotoxicity evaluation, MTT; type: cell-based, human; settings: human
Outline: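 HepG2 hepatocarcinoma cells exposed to compound in duplicate, then viability measured by MTT reduction (0.5 mg/ml), formazan dissolved in DMSO and read at 570 nm against 630 nm. Viability expressed as percent of untreated cells; CC50 taken from dose-response curve, doxorubicin as positive control.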

[11] = 2 μM compound, 0.2 μM oligonucleotide
[12] = chloroquine-sensitive strain 3D7, 48 h incubation
[13] = chloroquine-resistant strain W2, 48 h incubation

SMILES	ΔTm F21T ([1]; tested at 1 μM) [°C]	IC50 ([2]; 3D7, 48 h) [nM]	ΔTm FPf8T ([3]; tested at 1 μM) [°C]	ΔTm FPf1T ([4]; tested at 1 μM) [°C]	IC50 ([5]; W2, 48 h) [nM]	IC50 [6] [nM]	ΔTm F21T [1, 11] [°C]	ΔTm FdxT [7, 11] [°C]	IC50 [2, 12] [nM]	ΔTm FPf8T [3, 11] [°C]	ΔTm FtrypBT [8, 11] [°C]	IC50 [9] [nM]	CC50 at 72 h [10] [nM]	ΔTm FPf1T [4, 11] [°C]	IC50 [5, 13] [nM]	ΔTm F21T ([1]; tested at 0.5 μM) [°C]	ΔTm FdxT ([7]; tested at 0.5 μM) [°C]	ΔTm FPf8T ([3]; tested at 0.5 μM) [°C]	ΔTm FtrypBT ([8]; tested at 0.5 μM) [°C]	ΔTm FPf1T ([4]; tested at 0.5 μM) [°C]
CCN(CC)CCCC(C)Nc1ccnc2cc(Cl)ccc12 (stereo not drawn) [Chloroquine, reference compound]	2.4 ± 1.1	110 ± 10	2.4 ± 1.2	1.9 ± 0.1	400 ± 40															
CN(C)CCCNCc1ccc(-c2cc(-c3ccc(CNCCCN(C)C)cc3)c3ccccc3n2)cc1 [Compound 1b, 2,4-Bis{4-[(3-dimethylaminopropyl)aminomethyl]phenyl}quinoline]						≥ 10000	12.7 ± 0.6	0.0 ± 0.7	470 ± 60	9.9 ± 0.1	7.8 ± 1.2	820 ± 22	4090 ± 200	8.4 ± 1.0	880 ± 140					
CN(C)CCNCc1ccc(-c2cc(-c3ccc(CNCCN(C)C)cc3)c3ccccc3n2)cc1 [Compound 1c, 2,4-Bis{4-[(2-dimethylaminoethyl)aminomethyl]phenyl}quinoline]						≥ 10000	2.8 ± 1.3	−0.5 ± 0.4	32 ± 4	2.7 ± 0.2	2.6 ± 0.4	1480 ± 85	3100 ± 900	2.3 ± 0.7	340 ± 37					
CN1CCN(CCCNCc2ccc(-c3cc(-c4ccc(CNCCCN5CCN(C)CC5)cc4)c4ccccc4n3)cc2)CC1 [Compound 1e, 2,4-Bis{4-[(3–(4-methylpiperazin-1-yl)propyl)aminomethyl]phenyl}quinoline]						≥ 10000	11.3 ± 1.1	0.1 ± 0.1	470 ± 60	9.2 ± 0.5	7.4 ± 0.1	1780 ± 89	11300 ± 500	9.4 ± 0.6	1290 ± 63					
c1ccc2c(-c3ccc(CNCCCN4CCOCC4)cc3)cc(-c3ccc(CNCCCN4CCOCC4)cc3)nc2c1 [Compound 1g, 2,4-Bis{4-[(3-morpholinopropyl)aminomethyl]phenyl}quinoline]						≥ 10000	7.1 ± 2.7	−1.8 ± 0.4	99 ± 7	3.7 ± 0.6	2.0 ± 0.2	380 ± 45	1470 ± 300	3.7 ± 0.3						
c1cc(CNCCCN2CCOCC2)cc(-c2cc(-c3cccc(CNCCCN4CCOCC4)c3)c3ccccc3n2)c1 [Compound 1s, 2,4-Bis{3-[(3-morpholinopropyl)aminomethyl]phenyl}quinoline]						≥ 10000	2.5 ± 0.1	−1.5 ± 0.4	210 ± 40	2.8 ± 0.5	1.8 ± 0.7	730 ± 264	2630 ± 500	3.0 ± 0.4						
c1cc(CNCCN2CCOCC2)cc(-c2cc(-c3cccc(CNCCN4CCOCC4)c3)c3ccccc3n2)c1 [Compound 1t, 2,4-Bis{3-[(2-morpholinoethyl)aminomethyl]phenyl}quinoline]						≥ 10000	0.3 ± 0.3	−1.6 ± 0.4	230 ± 21	0.6 ± 0.7	0.6 ± 0.4	460 ± 120	3930 ± 1100	0.9 ± 0.2						
CN(C)CCCNCc1ccc(-c2nc(-c3ccc(CNCCCN(C)C)cc3)c3ccccc3n2)cc1 [Compound 3b, 2,4-Bis{4-[(3-dimethylaminopropyl)aminomethyl]phenyl}quinazoline]						≥ 10000	13.2 ± 0.3	0.1 ± 0.1	620 ± 77	11.2 ± 0.8	10.0 ± 0.4	1180 ± 57	4010 ± 800	11.6 ± 1.1						
c1ccc2c(-c3ccc(CNCCCN4CCOCC4)cc3)nc(-c3ccc(CNCCCN4CCOCC4)cc3)nc2c1 [Compound 3f, 2,4-Bis{4-[(3-morpholinopropyl)aminomethyl]phenyl}quinazoline]						≥ 10000	3.1 ± 0.5	−0.2 ± 0.2	420 ± 83	2.9 ± 0.3	2.8 ± 0.1	810 ± 63	4520 ± 400	3.3 ± 0.3						
c1ccc2c(-c3ccc(CNCCN4CCOCC4)cc3)nc(-c3ccc(CNCCN4CCOCC4)cc3)nc2c1 [Compound 3g, 2,4-Bis{4-[(2-morpholinoethyl)aminomethyl]phenyl}quinazoline]						≥ 10000	4.2 ± 2.1	0.3 ± 0.2	150 ± 27	1.2 ± 0.4	1.0 ± 0.5	1270 ± 632	4080 ± 600	1.4 ± 0.1						
c1cc(CNCCN2CCOCC2)cc(-c2nc(-c3cccc(CNCCN4CCOCC4)c3)c3ccccc3n2)c1 [Compound 3v, 2,4-Bis{3-[(2-morpholinoethyl)aminomethyl]phenyl}quinazoline]						≥ 10000	0.1 ± 0.1	0.0 ± 0.0	360 ± 126	0.5 ± 0.4	0.6 ± 0.1	1370 ± 658	6460 ± 1000	0.5 ± 0.3						
OC(c1cc(C(F)(F)F)nc2c(C(F)(F)F)cccc12)C1CCCCN1 (stereo not drawn) [Mefloquine, reference compound]	2.6 ± 0.5		6.6 ± 2.3	3.1 ± 0.5					60 ± 3						16 ± 2					
C[n+]1cc(NC(=O)c2ccc3ccc4ccc(C(=O)Nc5cc6ccccc6[n+](C)c5)nc4c3n2)cc2ccccc21 [PhenDC3, reference compound]																26.3 ± 0.1	0.1 ± 0.2	24.7 ± 0.2	19.2 ± 0.2	24.6 ± 0.1
